From patent US20220356174A1, “PYRIDIN-2-ONE COMPOUNDS USEFUL AS SMARCA2 ANTAGONISTS” (Epizyme, Inc., priority 2018, published 2022)

Assays:
[1] = molecular target: T1, FL-SMARCA2 (full-length human SMARCA2 isoform 1) (Homo sapiens, UniProt P51531); assay: SMARCA2 ATPase activity assay (ADP-Glo, chicken mononucleosome substrate); type: biochemical; settings: Table 3.1; ATPase assay, enzyme 5 nM, ATP 250 uM, chicken mononucleosome 10 nM, 30 min preincubation
T1 construct: FLAG tag (YKDDDDK) (C); made in house; host or cells: Sf21 insect cells (baculovirus, pFastBacI)

[2] = molecular target: FL-SMARCA4 (Homo sapiens, UniProt P51532); assay: SMARCA4 ATPase activity assay (ADP-Glo, chicken mononucleosome substrate); settings: FL-SMARCA4 IC50, Table 3.2; ATPase assay, enzyme 5 nM, ATP 250 uM, chicken mononucleosome 10 nM, 30 min preincubation
FL-SMARCA4, sequence (P51532 whole entry): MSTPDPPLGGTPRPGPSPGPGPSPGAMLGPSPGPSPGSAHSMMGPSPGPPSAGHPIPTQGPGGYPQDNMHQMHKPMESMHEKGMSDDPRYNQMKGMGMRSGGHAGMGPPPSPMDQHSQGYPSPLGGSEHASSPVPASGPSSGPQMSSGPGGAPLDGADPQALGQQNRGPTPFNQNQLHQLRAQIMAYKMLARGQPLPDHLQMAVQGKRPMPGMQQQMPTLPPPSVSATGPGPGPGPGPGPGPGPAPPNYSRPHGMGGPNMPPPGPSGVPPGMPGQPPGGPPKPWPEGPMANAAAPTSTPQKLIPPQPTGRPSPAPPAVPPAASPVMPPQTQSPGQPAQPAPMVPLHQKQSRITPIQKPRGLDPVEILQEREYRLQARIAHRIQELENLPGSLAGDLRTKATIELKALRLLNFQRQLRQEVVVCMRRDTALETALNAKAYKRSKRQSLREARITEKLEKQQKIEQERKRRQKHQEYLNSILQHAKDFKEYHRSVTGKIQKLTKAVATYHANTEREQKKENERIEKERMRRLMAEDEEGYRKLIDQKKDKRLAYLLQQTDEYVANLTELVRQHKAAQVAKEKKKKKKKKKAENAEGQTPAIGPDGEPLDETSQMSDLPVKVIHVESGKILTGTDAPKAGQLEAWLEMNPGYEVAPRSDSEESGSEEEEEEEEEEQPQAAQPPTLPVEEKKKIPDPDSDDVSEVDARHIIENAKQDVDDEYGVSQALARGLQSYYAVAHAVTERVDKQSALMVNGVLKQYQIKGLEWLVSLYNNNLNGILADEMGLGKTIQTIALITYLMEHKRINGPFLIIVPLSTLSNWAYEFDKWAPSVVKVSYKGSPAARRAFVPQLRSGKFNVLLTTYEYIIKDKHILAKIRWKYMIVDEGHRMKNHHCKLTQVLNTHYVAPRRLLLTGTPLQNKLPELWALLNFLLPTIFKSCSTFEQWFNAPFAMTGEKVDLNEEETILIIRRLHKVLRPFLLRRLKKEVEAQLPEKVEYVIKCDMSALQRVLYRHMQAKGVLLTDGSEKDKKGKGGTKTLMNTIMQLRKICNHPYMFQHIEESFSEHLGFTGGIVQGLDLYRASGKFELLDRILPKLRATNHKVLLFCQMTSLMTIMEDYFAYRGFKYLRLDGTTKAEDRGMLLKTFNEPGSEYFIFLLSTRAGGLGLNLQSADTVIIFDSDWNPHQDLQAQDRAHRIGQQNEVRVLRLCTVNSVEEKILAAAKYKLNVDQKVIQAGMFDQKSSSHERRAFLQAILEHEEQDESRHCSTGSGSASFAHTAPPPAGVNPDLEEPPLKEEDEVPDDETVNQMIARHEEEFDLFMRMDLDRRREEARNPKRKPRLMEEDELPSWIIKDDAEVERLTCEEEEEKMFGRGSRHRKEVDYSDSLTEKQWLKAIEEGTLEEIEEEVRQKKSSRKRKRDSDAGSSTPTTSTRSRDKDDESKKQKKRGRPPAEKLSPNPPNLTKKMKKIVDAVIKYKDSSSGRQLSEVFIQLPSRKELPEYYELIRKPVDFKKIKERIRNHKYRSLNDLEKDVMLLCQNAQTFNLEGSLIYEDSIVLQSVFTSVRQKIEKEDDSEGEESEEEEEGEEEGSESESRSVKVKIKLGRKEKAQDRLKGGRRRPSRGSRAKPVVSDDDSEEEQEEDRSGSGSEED

T1 sequence (P51531 with tags, fused parts or gaps): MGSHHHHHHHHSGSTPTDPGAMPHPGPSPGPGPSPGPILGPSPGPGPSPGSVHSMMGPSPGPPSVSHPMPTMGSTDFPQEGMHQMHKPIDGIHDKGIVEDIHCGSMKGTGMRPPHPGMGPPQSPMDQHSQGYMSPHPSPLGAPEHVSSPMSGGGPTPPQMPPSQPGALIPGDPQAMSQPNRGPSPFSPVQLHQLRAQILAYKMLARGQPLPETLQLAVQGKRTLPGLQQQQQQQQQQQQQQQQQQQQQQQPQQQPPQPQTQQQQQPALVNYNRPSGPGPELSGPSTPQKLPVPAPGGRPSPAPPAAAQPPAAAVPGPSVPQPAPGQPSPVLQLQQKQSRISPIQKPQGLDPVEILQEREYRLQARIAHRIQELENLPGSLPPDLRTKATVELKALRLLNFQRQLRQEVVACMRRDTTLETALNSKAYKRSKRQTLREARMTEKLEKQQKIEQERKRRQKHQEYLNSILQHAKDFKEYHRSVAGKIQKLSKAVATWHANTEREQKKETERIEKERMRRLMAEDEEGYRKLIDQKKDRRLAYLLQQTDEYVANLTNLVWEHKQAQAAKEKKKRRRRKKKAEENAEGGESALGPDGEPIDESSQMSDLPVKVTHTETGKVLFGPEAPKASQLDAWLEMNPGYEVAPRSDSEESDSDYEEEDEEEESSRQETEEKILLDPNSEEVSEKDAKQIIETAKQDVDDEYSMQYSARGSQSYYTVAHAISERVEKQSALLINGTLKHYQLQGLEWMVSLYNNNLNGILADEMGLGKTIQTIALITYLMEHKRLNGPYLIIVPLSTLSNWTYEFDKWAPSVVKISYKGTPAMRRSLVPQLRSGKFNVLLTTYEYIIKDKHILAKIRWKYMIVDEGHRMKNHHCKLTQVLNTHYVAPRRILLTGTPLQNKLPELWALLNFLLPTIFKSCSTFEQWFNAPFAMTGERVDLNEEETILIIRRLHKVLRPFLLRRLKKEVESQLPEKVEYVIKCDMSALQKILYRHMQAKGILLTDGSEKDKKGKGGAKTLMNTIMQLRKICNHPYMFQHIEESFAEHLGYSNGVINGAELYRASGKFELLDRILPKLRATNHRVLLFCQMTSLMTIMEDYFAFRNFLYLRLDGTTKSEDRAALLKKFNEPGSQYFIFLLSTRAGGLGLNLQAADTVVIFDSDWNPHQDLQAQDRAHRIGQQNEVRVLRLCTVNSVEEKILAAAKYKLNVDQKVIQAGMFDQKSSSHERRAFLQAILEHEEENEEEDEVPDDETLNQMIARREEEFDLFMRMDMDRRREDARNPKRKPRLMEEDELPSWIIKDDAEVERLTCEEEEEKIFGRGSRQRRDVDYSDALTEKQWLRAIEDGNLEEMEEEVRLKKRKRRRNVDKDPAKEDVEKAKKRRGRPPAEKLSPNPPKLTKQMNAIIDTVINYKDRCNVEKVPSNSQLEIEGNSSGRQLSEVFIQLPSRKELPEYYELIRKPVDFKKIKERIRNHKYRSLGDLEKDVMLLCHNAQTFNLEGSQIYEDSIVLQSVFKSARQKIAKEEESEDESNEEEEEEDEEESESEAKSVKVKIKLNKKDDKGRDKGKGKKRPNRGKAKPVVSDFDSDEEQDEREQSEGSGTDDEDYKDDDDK

SMILES | IC50 [1] [µM] | IC50 [2] [µM]
N#Cc1cc(C(=O)Nc2ccc(=O)n(CC(F)(F)F)c2)sc1C#N [Compound 198] | 0.107 | 0.283
CCn1cc(NC(=O)c2csc(C#N)n2)ccc1=O [Compound 199] | > 50 | > 50
COc1ccc(Cn2c(C(=O)Nc3ccc(=O)n(CCF)c3)cc(Cl)c2C#N)cc1 [Compound 200] | 48.3 | 45.3
O=C(Nc1cc(F)c(=O)n(CCF)c1)c1csc(NC2CCCC2)n1 [Compound 201] | > 50 | > 50
CCn1cc(NC(=O)c2csc(NC3CCCC3)n2)ccc1=O [Compound 202] | > 50 | > 50
CCn1cc(NC(=O)c2cnc(C#N)s2)ccc1=O [Compound 206] | 0.317 | 0.649
N#Cc1cc(C(=O)Nc2cc(Cl)c(=O)n(CC(F)(F)F)c2)sc1Cl [Compound 208] | 0.123 | 0.632
CCn1cc(NC(=O)c2csc(NC)n2)ccc1=O [Compound 209] | > 50 | > 50
N#Cc1sc(C(=O)Nc2cc(C#N)c(=O)n(CCF)c2)cc1Cl [Compound 210] | 0.207 | 0.694
N#Cc1cc(NC(=O)c2cc(Cl)c(Cl)[nH]2)cn(CC(F)(F)F)c1=O [Compound 211] | 2.31 | 27.5
Cn1c(C(=O)Nc2cc(C#N)c(=O)n(CC(F)(F)F)c2)cnc1Cl [Compound 214] | 29.9 | > 50
N#Cc1cc(C(=O)Nc2cc(Cl)c(=O)n(CCF)c2)sc1Cl [Compound 215] | 0.071 | 0.492
CCn1cc(NC(=O)c2cnc(NC3CCCC3)s2)ccc1=O [Compound 216] | > 50 | > 50
CCn1cc(NC(=O)c2cnc(NC(C)C)s2)ccc1=O [Compound 217] | > 50 | > 50
CCn1cc(NC(=O)c2csc(NC(C)C)n2)ccc1=O [Compound 218] | > 50 | > 50
O=C(Nc1cc(F)c(=O)n(CCF)c1)c1cnc(NC2CCCC2)s1 [Compound 219] | > 50 | > 50
Cn1c(C(=O)Nc2cc(F)c(=O)n(CC(F)(F)F)c2)cnc1C#N [Compound 221] | 1.45 | 6.28
N#Cc1[nH]c(C(=O)Nc2cc(Cl)c(=O)n(CCF)c2)cc1Cl [Compound 241] | 0.112 | 0.653
N#Cc1cc(C(=O)Nc2cc(F)c(=O)n(CCF)c2)oc1C#N [Compound 246] | 1.35 | 6.37
O=C(Nc1cc(F)c(=O)n(CC(F)(F)F)c1)c1cc(Cl)c(Cl)o1 [Compound 255] | 16.7 | > 50
O=C(Nc1cc(NCCN2CCOCC2)c(=O)n(CCF)c1)c1cc(Cl)c(Cl)s1 [Compound 256] | 6.34 | 21.4

SMILES | IC50 [1] [µM] | IC50 [2] [µM]
O=C(Nc1cc(NCCc2cccnc2)c(=O)n(CCF)c1)c1cc(Cl)c(Cl)s1 [Compound 257] | 19.1 | 23.7
O=C(Nc1cc(NCCN2CCCC2)c(=O)n(CCF)c1)c1cc(Cl)c(Cl)s1 [Compound 261] | 7.37 | 24.4
CN(C)CCCNc1cc(NC(=O)c2cc(Cl)c(Cl)s2)cn(CCF)c1=O [Compound 262] | 15.3 | 25.9
O=C(Nc1cc(NCCn2ccnc2)c(=O)n(CCF)c1)c1cc(Cl)c(Cl)s1 [Compound 263] | 21.6 | 27.4
O=C(Nc1cc(NCC2CCCN2)c(=O)n(CCF)c1)c1cc(Cl)c(Cl)s1 (stereo not drawn) [Compound 268] | 16.7 | 41.8
O=C(Nc1cc(F)c(=O)n(CCF)c1)c1cnc(OC(F)F)s1 [Compound 269] | 5.19 | 24.9
O=C(Nc1cc(F)c(=O)n(CCc2cn[nH]c2)c1)c1cc(Cl)c(Cl)s1 [Compound 270] | > 50 | > 50
CCn1cc(NC(=O)c2cc(-c3ccn(C)n3)c(Cl)s2)ccc1=O [Compound 272] | > 50 | > 50
O=C(Nc1cc(F)c(=O)n(CC(F)(F)F)c1)c1cnc(Cl)o1 [Compound 273] | > 50 | > 50
O=C(Nc1cc(F)c(=O)n(CCn2ccnc2)c1)c1cc(Cl)c(Cl)s1 [Compound 274] | > 50 | > 50
O=C(Nc1cc(F)c(=O)n(CCF)c1)c1cc(Cl)c(C#CCN2CCCC2)s1 [Compound 276] | 28.7 | 47.1
O=C(Nc1cc(F)c(=O)n(CCF)c1)c1cn(CC(F)(F)F)c(=O)s1 [Compound 277] | > 50 | > 50
C/C=C/c1cc(C(=O)Nc2ccc(=O)n(CC)c2)sc1Cl [Compound 279] | 24 | > 50
CCn1cc(NC(=O)c2cc(-c3cn(C)cn3)c(Cl)s2)ccc1=O [Compound 280] | > 50 | > 50
O=C(Nc1cc(F)c(=O)n(CCF)c1)c1cnc(-n2ccnc2C(F)(F)F)s1 [Compound 281] | > 50 | > 50
CCn1cc(NC(=O)c2cc(Cl)c(-c3ncco3)s2)ccc1=O [Compound 283] | 33.2 | > 50
CCn1cc(NC(=O)c2cc(C#CCN(C)C)c(Cl)s2)ccc1=O [Compound 286] | 9.49 | 16.7
CCn1cc(NC(=O)c2cc(C#Cc3cccnc3)c(Cl)s2)ccc1=O [Compound 287] | 1.28 | 3.66
CCn1cc(NC(=O)c2cc(C#CCN)c(Cl)s2)ccc1=O [Compound 292] | 6.83 | 8.48
N#Cc1sc(C(=O)Nc2ccc(=O)n(CC(F)F)c2)cc1Cl [Compound 293] | 0.127 | 0.3
N#Cc1[nH]c(C(=O)Nc2ccc(=O)n(CC(F)F)c2)cc1Cl [Compound 294] | 0.117 | 0.387

The next lines start with the values.

IC50 [1] [µM] | IC50 [2] [µM] | SMILES
1.26 | 5.78 | Cn1c(C(=O)Nc2cc(C#N)c(=O)n(CCF)c2)cc(Cl)c1C#N [Compound 204]
3.49 | 22.6 | Cn1c(C(=O)Nc2cc(F)c(=O)n(CCF)c2)cnc1Cl [Compound 205]
8.52 | > 50 | Cn1c(C(=O)Nc2cc(F)c(=O)n(CC(F)(F)F)c2)cnc1Cl [Compound 212]
17.9 | > 50 | Cn1c(C(=O)Nc2cc(C#N)c(=O)n(CCF)c2)cnc1Cl [Compound 213]
> 50 | > 50 | Nc1ncc(C(=O)Nc2cc(F)c(=O)n(CCF)c2)s1 [Compound 224]
> 50 | > 50 | CC(C)Nc1ncc(C(=O)Nc2cc(F)c(=O)n(CCF)c2)s1 [Compound 225]
> 50 | > 50 | NC(=O)c1ncc(C(=O)Nc2cc(F)c(=O)n(CCF)c2)s1 [Compound 226]
> 50 | > 50 | Cn1cc(C(=O)Nc2cc(F)c(=O)n(CCF)c2)sc1=O [Compound 227]
> 50 | > 50 | CNc1ncc(C(=O)Nc2cc(F)c(=O)n(CCF)c2)s1 [Compound 228]
0.602 | 1.88 | N#Cc1cc(C(=O)Nc2cc(F)c(=O)n(CCF)c2)[nH]c1Cl [Compound 229]
> 50 | > 50 | Cn1nc(C(=O)Nc2cc(F)c(=O)n(CCF)c2)cc1Cl [Compound 230]
7.63 | 36.4 | Cn1nc(Cl)cc1C(=O)Nc1cc(F)c(=O)n(CCF)c1 [Compound 233]
> 50 | > 50 | O=C(Nc1cc(F)c(=O)n(CCF)c1)c1c[nH]c(=O)s1 [Compound 239]
1.64 | 11.7 | Cn1nc(C#N)cc1C(=O)Nc1cc(F)c(=O)n(CCF)c1 [Compound 243]
> 50 | > 50 | Cn1nc(C(=O)Nc2cc(F)c(=O)n(CCF)c2)cc1C#N [Compound 244]
2 | 12.1 | N#Cc1cc(C(=O)Nc2cc(F)c(=O)n(CCF)c2)oc1Cl [Compound 245]
25.4 | > 50 | Cc1cc(C(=O)Nc2cc(F)c(=O)n(CCF)c2)on1 [Compound 250]
> 50 | > 50 | O=C(Nc1cc(F)c(=O)n(CCF)c1)c1cnc(Br)o1 [Compound 252]
> 50 | > 50 | O=C(Nc1cc(F)c(=O)n(CCF)c1)c1cnc(Cl)o1 [Compound 253]
5.81 | 47.1 | O=C(Nc1cc(F)c(=O)n(CCF)c1)c1cc(Cl)c(Cl)o1 [Compound 254]
> 50 | > 50 | CC(=O)Nc1ncc(C(=O)Nc2cc(F)c(=O)n(CCF)c2)s1 [Compound 258]
6.23 | 38.5 | O=C(Nc1cc(F)c(=O)n(CCF)c1)c1cc(C(F)(F)F)no1 [Compound 264]
> 50 | > 50 | N#Cc1ncc(C(=O)Nc2cc(F)c(=O)n(CCF)c2)o1 [Compound 266]
> 50 | > 50 | O=C(Nc1cc(F)c(=O)n(CCF)c1)c1cnc(-n2ccnc2)s1 [Compound 271]
> 50 | > 50 | CNC(=O)c1sc(C(=O)Nc2cc(F)c(=O)n(CCF)c2)cc1Cl [Compound 278]
> 50 | > 50 | CN(C)C(=O)c1sc(C(=O)Nc2cc(F)c(=O)n(CCF)c2)cc1Cl [Compound 282]
3.21 | 30.6 | O=C(Nc1cc(F)c(=O)n(CCF)c1)c1cc(Cl)c(CO)s1 [Compound 284]
> 50 | > 50 | CS(=O)(=O)c1ccc(C(=O)Nc2cc(F)c(=O)n(CCF)c2)s1 [Compound 288]
10.6 | 42.6 | O=C(Nc1cc(F)c(=O)n(CCF)c1)c1cc(Cl)c(C(O)C(F)(F)F)s1 (stereo not drawn) [Compound 289]
> 50 | > 50 | CNC(=O)c1cc(C(=O)Nc2cc(F)c(=O)n(CCF)c2)sc1Cl [Compound 291]
